“Also recorded” adds a separate entry of the source.
Experiments:
Hs0578t cells [1] = assay: growth inhibition of estrogen negative human breast cancer cell line Hs0578t in culture; assay type: cell-based; settings: for inhibition of Hs0578t cell growth, by concentration / IC50: 10^-15 M to 10^-5 M; for inhibition of Hs0578t cell growth, by concentration: inhibitory = proliferation decreased by 20% or more vs controls; for comparative assessment of potency / maximal inhibition, Hs0578t cell growth: summary statement; for IC50: Homo sapiens, 120 h, approximate, estimated from manually fitted best fit curve, cell counts five days after seeding
Experimental: (§1) The above examples were tested for their ability to inhibit the growth of both estrogen positive (MCF-7) and estrogen negative (Hs0578t) human breast cancer cell lines in culture. […] MCF-7 cells were maintained in Dulbecco's modified Eagle's medium (DMEM), supplemented with 10% fetal bovine serum (FBS), penicillin (10,000 units/ml) and streptomycin (10 mg/ml) at 37° C. in a humidified atmosphere containing 5% CO2. Hs0578t cells were maintained under similar conditions, however DMEM containing high glucose was used and 10 ug/ml of insulin was added to the medium. Prior to each experiment, cells from stock flasks were suspended by treatment with 0.2% EDTA in phosphate buffered saline (pH 7.3). The cells were then centrifuged at 1000 rpm for 7 minutes, then resuspended in fresh medium and counted on a hemocytometer. Cells were adjusted to a density of 3.0×10^6 /plate in 5 mls of supplemented plating medium. After 5 hours, the plating medium was replaced with fresh medium containing either melatonin or the above examples in concentrations ranging from 10^-15 M to 10^-5 M. These compounds were initially dissolved in ethanol and diluted to the appropriate final concentration with DMEM; the final concentration of ethanol per plate was 0.005%. Control cells were exposed to the ethanol vehicle alone (0.005%). Five days after initial seeding, the cells were resuspended with PBS-EDTA and counted on a hemocytometer to determine the total cell counts per plate. Each experiment was run using triplicate plates for each concentration of melatonin or above example as well as the vehicle controls. Cell growth in each of the experimental plates was expressed as a percent of control growth (100%). A given concentration of either an above example or of melatonin was considered to be inhibitory if it decreased cell proliferation by 20% or more as compared with controls. Since most of the dose-response curves were irregular, the approximate IC50 for each example was estimated from a best fit (manually fitted) curve spanning from the 100% control growth level to the maximal inhibitory concentration of that example. Effects of the above examples on estrogen receptor positive and estrogen receptor negative human breast cancer cell lines (MCF-7 and Hs0578t, respectively) are summarized in FIGS. 1-15, and discussed below. FIGS. 1-6 summarize effects on the MCF-7 cell line, while FIGS. 7-15 describe effects on the Hs0578t cell line.

MCF-7 cells [2] = assay: growth inhibition of estrogen positive human breast cancer cell line MCF-7 in culture; assay type: cell-based; settings: for inhibition of MCF-7 cell growth, by concentration: 10^-15 M to 10^-5 M, inhibitory = proliferation decreased by 20% or more vs controls; for potency relative to melatonin (times more potent), MCF-7 cell growth: compared with melatonin IC50; for comparative assessment of potency / maximal inhibition, MCF-7 cell growth: summary statement
Experimental: as §1

frog skin = settings: Heward and Hadley 1975; cited from earlier work
[3] = Frohn et al.; Clemens et al.; cited from earlier work
mammary tumors = settings: melatonin administration; cited from earlier work
Hs0578t cells [4] = settings: reference molecule, known activity; high concentrations; cited from earlier work
MCF-7 cells [5] = settings: reference molecule, known activity; cited from earlier work
chicken retina = settings: Dubocovich 1984; cited from earlier work

COc1ccc2[nH]c(Cc3ccccc3)c(CCNC(C)=O)c2c1 [Example #4, 2-Benzyl-3-Ethylacetamido-5-Methoxyindole]
inhibition of Hs0578t cell growth, by concentration (Hs0578t cells [1]): inhibits Hs0578t cell growth at 10^-13 M and 10^-7 M | comparative assessment of potency / maximal inhibition, Hs0578t cell growth (Hs0578t cells [1]): appears to be the most potent inhibitor of Hs0578t cells | inhibition of MCF-7 cell growth, by concentration (MCF-7 cells [2]): All concentrations of Example #4 were inhibitory to cell growth | potency relative to melatonin (times more potent), MCF-7 cell growth (MCF-7 cells [2]): 60 times

COc1ccc2[nH]c3c(c2c1)CCN(C(C)=O)C3C (stereo not drawn) [Example #3, 1-Methyl-2-N-Acetyl-6-Methoxy-1,2,3,4-Tetrahydro-β-Carboline]
inhibition of Hs0578t cell growth, by concentration (Hs0578t cells [1]): All concentrations of these compounds were inhibitory to cell growth | inhibition of MCF-7 cell growth, by concentration (MCF-7 cells [2]): inhibited MCF-7 cell growth at all concentrations

CC(=O)NCCc1c(Cc2ccc(C)cc2)[nH]c2ccccc12 [Example #10, 2-(4-Tolylmethyl)-3-Ethylacetamidoindole]
inhibition of Hs0578t cell growth, by concentration (Hs0578t cells [1]): no inhibition of Hs0578t cell growth was observed | inhibition of MCF-7 cell growth, by concentration (MCF-7 cells [2]): inhibits MCF-7 cell growth at 10^-15 M, 10^-13 M, and 10^-11 M

COc1ccc(Cc2[nH]c3ccccc3c2CCNC(C)=O)cc1 [Example #11, 2-(4-Methoxyphenyl)Methyl-3-Ethylacetamidoindole]
inhibition of Hs0578t cell growth, by concentration (Hs0578t cells [1]): no inhibition of Hs0578t cell growth was observed | inhibition of MCF-7 cell growth, by concentration (MCF-7 cells [2]): inhibits MCF-7 cell growth at 10^-15 M and 10^-13 M | comparative assessment of potency / maximal inhibition, MCF-7 cell growth (MCF-7 cells [2]): not only a highly potent compound, but it elicits an impressive maximal inhibitory response at a very low concentration

CC(=O)N1CCc2c([nH]c3ccc(OCc4ccccc4)cc23)C1C (stereo not drawn) [Example #7, 1-Methyl-2-N-Acetyl-6-Benzyloxy-1,2,3,4-Tetrahydro-β-Carboline]
inhibition of Hs0578t cell growth, by concentration (Hs0578t cells [1]): All concentrations of these compounds were inhibitory to cell growth, with the exception of Example #7 at 10^-11 M | IC50 (Hs0578t cells [1]): ~10 nM | inhibition of MCF-7 cell growth, by concentration (MCF-7 cells [2]): All concentrations of Example #7 were inhibitory | Emax at 1 fM (MCF-7 cells [2]; Homo sapiens, MCF7, at 10^-15 M, read-out: maximal effect, inhibition (MCF-7 cell growth)): 37% | potency relative to melatonin (times more potent), MCF-7 cell growth (MCF-7 cells [2]): 100 times

CC(=O)NCCc1c(Cc2cccc3ccccc23)[nH]c2ccccc12 [Example #9]
inhibition of Hs0578t cell growth, by concentration (Hs0578t cells [1]): inhibits Hs0578t cell growth at 10^-5 M and 10^-7 M | IC50 (Hs0578t cells [1]): ~4 nM | comparative assessment of potency / maximal inhibition, Hs0578t cell growth (Hs0578t cells [1]): shows the best maximal inhibition of growth | inhibition of MCF-7 cell growth, by concentration (MCF-7 cells [2]): inhibition of MCF-7 cell growth at all concentrations for Examples #2 and 9, with the exceptions of Example #2 at 10^-13 M and Example #9 at 10^-13 M and 10^-5 M

O=C(NCCc1c[nH]c2ccccc12)OCc1ccccc1 [Example #2, N-Benzyloxycarbonyltryptamine]
inhibition of Hs0578t cell growth, by concentration (Hs0578t cells [1]): inhibits Hs0578t cell growth at 10^-11 M and 10^-9 M | comparative assessment of potency / maximal inhibition, Hs0578t cell growth (Hs0578t cells [1]): highly potent inhibitor of both cell lines, but also induces in both a substantial inhibitory response at low concentrations | inhibition of MCF-7 cell growth, by concentration (MCF-7 cells [2]): inhibition of MCF-7 cell growth at all concentrations for Examples #2 and 9, with the exceptions of Example #2 at 10^-13 M | comparative assessment of potency / maximal inhibition, MCF-7 cell growth (MCF-7 cells [2]): elicits the best maximal inhibitory response; also recorded: highly potent inhibitor of both cell lines, but also induces in both a substantial inhibitory response at low concentrations

CC(=O)NCCc1c[nH]c2ccc(O)cc12 [N-acetylserotonin]
melatonin blocking activity (frog skin lightening) (frog skin): melatonin blocking activity

COc1cc2c(CCNC(C)=O)c(C)[nH]c2c(Cl)c1Cl [2-methyl-6,7-dichloromelatonin]
metabolic stability [3]: improved metabolic stability

COc1ccc2[nH]cc(CCNC(C)=O)c2c1 [melatonin, 5-methoxy-N-actyltryptamine]
effect on mammary carcinogenesis (mammary tumors): melatonin administration has been shown to inhibit | inhibition of Hs0578t cell growth, by concentration (Hs0578t cells [1]): no inhibitory effect in most experiments | inhibition of growth of estrogen negative cell lines such as Hs0578t (Hs0578t cells [4]): at high concentrations, can inhibit estrogen negative cell lines such as Hs0578t | inhibition of growth of estrogen positive cell lines (MCF-7 cells [5]): known to inhibit growth of estrogen positive cell lines

CC(=O)NCCc1c(Cc2ccccc2)[nH]c2ccccc12 [Example #8, 2-Benzyl-3-Ethylacetamidoindole]
IC50 (Hs0578t cells [1]): ~0.1 nM

CC(=O)NCCc1c[nH]c2ccccc12 [N-acetyltryptamine]
antagonism of inhibitory effect of melatonin in chicken retina (chicken retina): competitively antagonized the inhibitory effect of melatonin in the chicken retina | melatonin blocking activity (frog skin lightening) (frog skin): melatonin blocking activity

CC(=O)N1CCc2c([nH]c3ccccc23)C1 [Example #6, 2-N-Acetyl-1,2,3,4-Tetrahydro-β-Carboline]
inhibition of MCF-7 cell growth, by concentration (MCF-7 cells [2]): All concentrations except 10^-13 M and 10^-5 M were inhibitory to MCF-7 cell growth | comparative assessment of potency / maximal inhibition, MCF-7 cell growth (MCF-7 cells [2]): appears to be the most potent inhibitor of MCF-7 cell growth

CCC(=O)NCCc1c(Cc2ccccc2)[nH]c2ccccc12 [Example #5, 2-Benzyl-N-Propionyltryptamine]
inhibition of Hs0578t cell growth, by concentration (Hs0578t cells [1]): no inhibition of Hs0578t cell growth was observed | concentration at which the maximal effect was seen (MCF-7) (MCF-7 cells [2]): 10^-5 M | inhibition of MCF-7 cell growth, by concentration (MCF-7 cells [2]): inhibited cell growth at all concentrations except 10^-13 M, 10^-11 M and 10^-7 M

CC(=O)NCCn1c(C)ccc1C [Example #1]
stimulation of Hs0578t cell growth (Hs0578t cells [1]; 10^-9 M): cell growth is actually stimulated at 10^-9 M | inhibition of Hs0578t cell growth, by concentration (Hs0578t cells [1]): inhibition of Hs0578t cell growth only at 10^-5 M | IC50 (Hs0578t cells [1]): ~6 nM | inhibition of MCF-7 cell growth, by concentration (MCF-7 cells [2]): all concentrations except 10^-11 M and 10^-7 M inhibited MCF-7 cell growth
